US20250026721A1, “COMPOUNDS AND METHODS FOR MODULATING RAS-PI3K” (Vividion Therapeutics, Inc., priority 2023, published 2025)

How the values were obtained:
[1] = target: T1, PIK3CA (Homo sapiens, UniProt P42336); assay: In vitro ELISA target engagement assay for PIK3CA in Jurkat cellular lysate (competition with PIK3CA Biotin Probe); type: binding; details: 1 hour at rt, then 500 nM PIK3CA Biotin Probe, read-out: Elisa Target Engagement Assay (TE50)
T1 construct: endogenous in cells; host or cells: Jurkat cell lysate
T1 sequence (P42336 whole entry): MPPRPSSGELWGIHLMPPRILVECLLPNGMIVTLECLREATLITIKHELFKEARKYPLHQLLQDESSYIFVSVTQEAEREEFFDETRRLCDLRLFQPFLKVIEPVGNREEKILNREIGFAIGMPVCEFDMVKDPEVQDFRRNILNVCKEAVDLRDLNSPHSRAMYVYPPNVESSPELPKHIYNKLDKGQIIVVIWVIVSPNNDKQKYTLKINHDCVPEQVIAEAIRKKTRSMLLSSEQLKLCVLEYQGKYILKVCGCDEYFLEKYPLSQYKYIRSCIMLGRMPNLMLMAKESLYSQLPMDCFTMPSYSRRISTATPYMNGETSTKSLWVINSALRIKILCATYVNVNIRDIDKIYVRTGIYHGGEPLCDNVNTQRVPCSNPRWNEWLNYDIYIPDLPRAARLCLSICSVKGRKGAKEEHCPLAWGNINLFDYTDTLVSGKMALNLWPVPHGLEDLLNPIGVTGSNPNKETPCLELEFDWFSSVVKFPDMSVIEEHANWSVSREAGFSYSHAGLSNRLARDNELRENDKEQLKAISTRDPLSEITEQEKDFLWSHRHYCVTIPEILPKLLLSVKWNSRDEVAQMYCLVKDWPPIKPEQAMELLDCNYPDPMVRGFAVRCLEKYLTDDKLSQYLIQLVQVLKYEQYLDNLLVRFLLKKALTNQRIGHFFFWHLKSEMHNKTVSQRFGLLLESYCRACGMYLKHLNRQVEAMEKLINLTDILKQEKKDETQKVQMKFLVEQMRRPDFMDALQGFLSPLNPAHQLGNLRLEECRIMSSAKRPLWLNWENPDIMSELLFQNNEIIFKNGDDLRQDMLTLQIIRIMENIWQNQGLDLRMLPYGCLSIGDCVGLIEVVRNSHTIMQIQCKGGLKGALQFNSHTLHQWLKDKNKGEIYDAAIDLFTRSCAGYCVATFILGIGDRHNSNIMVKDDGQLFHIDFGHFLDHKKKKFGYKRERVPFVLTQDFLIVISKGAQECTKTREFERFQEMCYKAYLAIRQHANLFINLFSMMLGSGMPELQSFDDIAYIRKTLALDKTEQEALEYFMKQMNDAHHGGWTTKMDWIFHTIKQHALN
T1 sequence (P27986 whole entry partner): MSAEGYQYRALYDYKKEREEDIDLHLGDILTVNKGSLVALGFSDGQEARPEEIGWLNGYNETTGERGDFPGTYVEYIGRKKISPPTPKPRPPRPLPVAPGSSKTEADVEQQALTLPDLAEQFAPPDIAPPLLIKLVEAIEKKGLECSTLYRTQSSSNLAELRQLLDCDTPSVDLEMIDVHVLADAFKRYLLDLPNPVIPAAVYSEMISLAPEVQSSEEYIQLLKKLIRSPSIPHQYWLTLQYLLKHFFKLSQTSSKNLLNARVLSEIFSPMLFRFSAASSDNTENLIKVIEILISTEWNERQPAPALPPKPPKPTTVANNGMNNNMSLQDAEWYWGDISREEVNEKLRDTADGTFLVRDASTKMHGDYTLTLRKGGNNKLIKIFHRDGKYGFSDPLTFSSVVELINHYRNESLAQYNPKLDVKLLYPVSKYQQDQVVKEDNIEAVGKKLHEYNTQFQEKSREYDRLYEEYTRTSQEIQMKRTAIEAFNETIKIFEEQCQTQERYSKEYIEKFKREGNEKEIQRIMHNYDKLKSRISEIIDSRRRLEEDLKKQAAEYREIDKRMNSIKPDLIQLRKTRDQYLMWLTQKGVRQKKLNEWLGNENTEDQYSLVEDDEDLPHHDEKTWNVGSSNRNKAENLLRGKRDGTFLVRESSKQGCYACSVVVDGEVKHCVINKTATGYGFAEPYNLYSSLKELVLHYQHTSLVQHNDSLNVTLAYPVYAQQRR
Procedure, shortened: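 Competition format in Jurkat lysate: compound (serial dilutions, top 200 μM) for 1 h at rt, then 500 nM final biotinylated PIK3CA probe for 1 h at rt. Sandwich ELISA with capture antibody and Neutravidin-HRP luminescence read-out measured probe-labelled PIK3CA, giving TE50.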

[2] = system: pAKT(S473) in FaDu cell line; assay: In vitro Phospho-AKT(S473) HTRF analysis in FaDu cells; type: cell-based; details: Homo sapiens, 0.5 h; for IC50: FaDu cells, 30 minutes at 37° C.; for Emax: FaDu, read-out: FaDu pAKT Imax % control
Experimental: Example 5. In Vitro Phosgho-AKT(S473) Analysis
Functional activity of the compounds to inhibit pAKT were assessed in FaDu or H358 cell lines as indicated below.
• Complete Media • FBS, Corning catalog #35-010-CV • Anti-Anti, Gibco catalog #15240-062 • 96 well plate, Corning catalog #3610 • TrypLE, Gibco catalog #12604013 • Phospho-AKT(S473) HTRF kit, Cisbio catalog #64AKSPET
Cells were detached from the tissue culture flask with TrypLE. The cells were pelleted at 500×g for 5 min, TrypLe was removed and then resuspended in the necessary volume of media+1% FBS to give the appropriate cell density (17,500 cells/mL for FaDu; 20,000 cells/mL for H358). 100 μL of cell suspension/well was dispensed into the 96-well plate while keeping the outer wells of the plate free of cells and filled with PBS to prevent evaporation of interior wells. The plate was incubated at 37° C. and allowed to adhere overnight. The cells were treated with a dose response of compound and incubated at 37° C. for 30 minutes. The cells were then processed and pAKT(S473) levels were assessed following the specifications of the Cisbio HTRF kit.

[3] = target: T2, PIK3CA_C242 (Homo sapiens, UniProt P42336); assay: Proteomic TE50 (IA-DTB / TMT mass spectrometry) in Jurkat cell lysate; type: binding; details: 1 hour at rt, 7-point dose response
T2 construct: endogenous in cells; host or cells: Jurkat cell lysate
T2 sequence (P42336 whole entry): as the sequence (P42336 whole entry) above
T2 sequence (P27986 whole entry partner): as the sequence (P27986 whole entry partner) above
Procedure, shortened: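 Cysteine engagement was read by targeted TMT MS3 of the IA-DTB-labelled, streptavidin-enriched C242 tryptic peptide. Beforehand, Jurkat lysate was exposed to a 7-point 1:5 compound series for 1 h at rt, then to 200 μM IA-DTB for 1 h. Reporter S/N curves gave TE50.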

| Structure (SMILES) | IC50 [1] [nM] | IC50 [2] [nM] | IC50 [3] [nM] | Emax [2] [%] |
| --- | --- | --- | --- | --- |
| C[C@@H](/C=C\S(C)(=O)=O)NC(=O)C1(F)CCN(S(=O)(=O)c2ccc(Br)cc2-c2ccccc2Cl)CC1 [Compound 62, (S,Z)-1-((5-bromo-2′-chloro-[1,1′-biphenyl]-2-yl)sulfonyl)-4-fluoro-N-(4-(methylsulfonyl)but-3-en-2-yl)piperidine-4-carboxamide] | – | 27.5 | – | 85.2 |
| CCCCOc1cccc(-c2cc(Cl)ccc2S(=O)(=O)N2CCC(F)(C(=O)N[C@@H](C)/C=C\S(C)(=O)=O)CC2)c1 [Compound 13, (S,Z)-1-((3′-butoxy-5-chloro-[1,1′-biphenyl]-2-yl)sulfonyl)-4-fluoro-N-(4-(methylsulfonyl)but-3-en-2-yl)piperidine-4-carboxamide] | 480 | – | 340 | – |
| Cc1ccccc1-c1cc(C(C)C)ccc1S(=O)(=O)N1CCC(F)(C(=O)N[C@H](C)/C=C\S(C)(=O)=O)CC1 [Compound 115, (R,Z)-4-fluoro-1-((5-isopropyl-2′-methyl-[1,1′-biphenyl]-2-yl)sulfonyl)-N-(4-(methylsulfonyl)but-3-en-2-yl)piperidine-4-carboxamide] | 520 | – | 410 | – |
| C[C@H](/C=C\S(C)(=O)=O)NC(=O)C1(F)CCN(S(=O)(=O)c2ccc(N3CCCC3)cc2-c2ccc(F)cc2Cl)CC1 [Compound 123, (R,Z)-1-((2′-chloro-4′-fluoro-5-(pyrrolidin-1-yl)-[1,1′-biphenyl]-2-yl)sulfonyl)-4-fluoro-N-(4-(methylsulfonyl)but-3-en-2-yl)piperidine-4-carboxamide] | 820 | – | 63 | – |
| C[C@@H](/C=C\S(C)(=O)=O)NC(=O)C1(F)CCN(S(=O)(=O)c2ccc(Cl)cc2-c2cccc(OCc3cccc(Cl)c3)c2)CC1 [Compound 266, (S,Z)-1-((5-chloro-3′-((3-chlorobenzyl)oxy)-[1,1′-biphenyl]-2-yl)sulfonyl)-4-fluoro-N-(4-(methylsulfonyl)but-3-en-2-yl)piperidine-4-carboxamide] | 750 | – | 600 | – |
| N#C/C=C/CNC(=O)C1(F)CCN(S(=O)(=O)c2ccc(Br)cc2-c2ccccc2Cl)CC1 [Compound 68, (E)-1-((5-bromo-2′-chloro-[1,1′-biphenyl]-2-yl)sulfonyl)-N-(3-cyanoallyl)-4-fluoropiperidine-4-carboxamide] | 465 | – | 330 | – |
| COc1ccc(S(=O)(=O)N2CCC(F)(C(=O)N[C@H](C)/C=C\S(C)(=O)=O)CC2)c(-c2c(F)cccc2Cl)c1 [Compound 30, 1-((2′-chloro-6′-fluoro-5-methoxy-[1,1′-biphenyl]-2-yl)sulfonyl)-4-fluoro-N-((R,Z)-4-(methylsulfonyl)but-3-en-2-yl)piperidine-4-carboxamide] | 560 | – | 340 | – |
| CCCOc1cccc(-c2cc(Cl)ccc2S(=O)(=O)N2CCC(F)(C(=O)N[C@@H](C)/C=C\S(C)(=O)=O)CC2)c1 [Compound 14, (S,Z)-1-((5-chloro-3′-propoxy-[1,1′-biphenyl]-2-yl)sulfonyl)-4-fluoro-N-(4-(methylsulfonyl)but-3-en-2-yl)piperidine-4-carboxamide] | 470 | – | 330 | – |

More lines, main results first:

| IC50 [1] [nM] | IC50 [2] [nM] | IC50 [3] [nM] | Structure (SMILES) | Emax [2] [%] |
| --- | --- | --- | --- | --- |
| 310 | 418 | – | [2H]C([2H])([2H])Oc1ccc(S(=O)(=O)N2CC[C@@](F)(C(=O)N[C@H](C)/C=C/C(=O)N3CC(F)(F)C3)C[C@H]2C)c(-c2ccccc2Cl)c1 [Compound 300, (2R,4S)-1-((2′-chloro-5-(methoxy-d3)-[1,1′-biphenyl]-2-yl)sulfonyl)-N-((R,E)-5-(3,3-difluoroazetidin-1-yl)-5-oxopent-3-en-2-yl)-4-fluoro-2-methylpiperidine-4-carboxamide] | 94.2 |
| 160 | 267 | – | C[C@H](/C=C/C(=O)N1CC(F)(F)C1)NC(=O)[C@]1(F)CCN(S(=O)(=O)c2ccc(C(F)F)cc2-c2ccccc2Cl)[C@H](C)C1 [Compound 253, (2R,4S)-1-((2′-chloro-5-(difluoromethyl)-[1,1′-biphenyl]-2-yl)sulfonyl)-N-((R,E)-5-(3,3-difluoroazetidin-1-yl)-5-oxopent-3-en-2-yl)-4-fluoro-2-methylpiperidine-4-carboxamide] | 77.2 |
| 215 | 136 | – | C[C@H](/C=C\S(C)(=O)=O)NC(=O)[C@@]1(F)CCCN(C(=O)[C@H]2CN(CC(F)(F)F)C[C@H]2c2cccc(F)c2Cl)CC1 (single isomer, unassigned) [Compound 168, (R)-1-((3*R,4*R)-4-(2-chloro-3-fluorophenyl)-1-(2,2,2-trifluoroethyl)pyrrolidine-3-carbonyl)-4-fluoro-N-((R,Z)-4-(methylsulfonyl)but-3-en-2-yl)azepane-4-carboxamide] | 90.6 |
| 87.2 | – | 120 | C[C@H](/C=C/C(=O)N1CC(F)(F)C1)NC(=O)C1(F)CCN(S(=O)(=O)c2ccc(Br)cc2-c2ccccc2Cl)CC1 [Compound 135, (R,E)-1-((5-bromo-2′-chloro-[1,1′-biphenyl]-2-yl)sulfonyl)-N-(5-(3,3-difluoroazetidin-1-yl)-5-oxopent-3-en-2-yl)-4-fluoropiperidine-4-carboxamide] | – |
| 330 | – | 390 | C[C@@H](/C=C\S(C)(=O)=O)NC(=O)C1(F)CCN(S(=O)(=O)c2ccc(Cl)cc2-c2cccc(OCc3ccccc3Cl)c2)CC1 [Compound 265, (S,Z)-1-((5-chloro-3′-((2-chlorobenzyl)oxy)-[1,1′-biphenyl]-2-yl)sulfonyl)-4-fluoro-N-(4-(methylsulfonyl)but-3-en-2-yl)piperidine-4-carboxamide] | – |
| 60 | – | 107 | COc1cccc(-c2cc(N(C)C)ccc2S(=O)(=O)N2CCC(F)(C(=O)N[C@@H](C)/C=C\S(C)(=O)=O)CC2)c1 (racemic) [Compound 86, 1-[4-(Dimethylamino)-2-(3-methoxyphenyl)phenyl]sulfonyl-4-fluoro-N-[rac-(Z, 1S)-1-methyl-3-methylsulfonyl-allyl]piperidine-4-carboxamide] | – |
| 350 | – | 310 | COc1cccc(-c2cc(Cl)ccc2S(=O)(=O)N2CCC(C)(C(=O)N[C@@H](C)/C=C\S(C)(=O)=O)CC2)c1 [Compound 201, (S,Z)-1-((5-chloro-3′-methoxy-[1,1′-biphenyl]-2-yl)sulfonyl)-4-methyl-N-(4-(methylsulfonyl)but-3-en-2-yl)piperidine-4-carboxamide] | – |
| 110 | – | 246 | COc1cccc(-c2cc(Cl)ccc2S(=O)(=O)N2CCC(F)(C(=O)N[C@@H](C)/C=C\S(C)(=O)=O)CC2)c1 [Compound 1, (S,Z)-1-((5-chloro-3′-methoxy-[1,1′-biphenyl]-2-yl)sulfonyl)-4-fluoro-N-(4-(methylsulfonyl)but-3-en-2-yl)piperidine-4-carboxamide] | – |
| 280 | – | 240 | COc1cc(-c2ccccc2)c(S(=O)(=O)N2CCC(F)(C(=O)N[C@@H](C)/C=C\S(C)(=O)=O)CC2)cn1 [Compound 192, (S,Z)-4-fluoro-1-((6-methoxy-4-phenylpyridin-3-yl)sulfonyl)-N-(4-(methylsulfonyl)but-3-en-2-yl)piperidine-4-carboxamide] | – |
| 450 | – | 430 | COc1ccc(S(=O)(=O)N2CCC(F)(C(=O)N[C@H](C)/C=C\S(C)(=O)=O)CC2)c(-c2ccc(F)cc2Cl)c1 [Compound 27, (R,Z)-1-((2′-chloro-4′-fluoro-5-methoxy-[1,1′-biphenyl]-2-yl)sulfonyl)-4-fluoro-N-(4-(methylsulfonyl)but-3-en-2-yl)piperidine-4-carboxamide] | – |
